The text below walks through data of patent US20240327421A1 (Marquette University, priority 2017, published 2024).

“Also recorded” adds a separate entry of the source.

In one data set the target is T1, CYP1A2 (Homo sapiens, UniProt P05177).
T1 construct: purchased Promega Corporation (Madison, WI)
T1 sequence (P05177 1-516): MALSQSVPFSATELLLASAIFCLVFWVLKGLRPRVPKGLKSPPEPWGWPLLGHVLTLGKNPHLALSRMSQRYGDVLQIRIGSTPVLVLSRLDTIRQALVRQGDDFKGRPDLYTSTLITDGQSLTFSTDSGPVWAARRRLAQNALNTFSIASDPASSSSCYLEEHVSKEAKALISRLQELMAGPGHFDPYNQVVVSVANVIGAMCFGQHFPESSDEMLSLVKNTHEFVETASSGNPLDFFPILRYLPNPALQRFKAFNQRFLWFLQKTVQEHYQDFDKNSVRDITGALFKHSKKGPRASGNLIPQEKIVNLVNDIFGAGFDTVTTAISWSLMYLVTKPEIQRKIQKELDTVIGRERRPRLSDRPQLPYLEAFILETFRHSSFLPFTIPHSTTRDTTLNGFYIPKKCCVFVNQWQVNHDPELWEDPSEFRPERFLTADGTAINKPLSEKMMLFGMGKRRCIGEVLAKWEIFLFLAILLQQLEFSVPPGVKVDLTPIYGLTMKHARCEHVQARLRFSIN
Nature of the data set: P450-Glo CYP450 inhibition, CYP1A2. The class given is in vitro ADME. The following applies: highest concentration 62.6 μM; listed as ISP358-2. The method, then:
In Vitro Druggability Assays-CYP450 Binding, hERG & Nephelometry. The P450-Glo™ Screening System from Promega Corporation (Madison, WI) was used to measure CYP450 (cytochrome P450) inhibition, as described in the kit instructions. Assays were run in 96-well white plates (Corning® 3912), and luminescence was measured on a SpectraMax M5 instrument (FIG. 6). The luminescence signal is proportional to the amount of luciferin product formed by the CYP reaction. Compounds were prepared in DMSO, then an eight-step 1:2 dilution series was made in DMSO. […] After adding the relevant Cytochrome P450 enzyme, the plate was incubated at 37° C. for 10 minutes to allow components to come to temperature. Next, the NADPH regeneration system was added to activate the reaction on a luminogenic P450-GloTM substrate, and incubated at 37° C. for 10-30 min, according to kit instructions for each CYP enzyme. The enzyme reaction was stopped by the addition of Luciferin Detection Reagent and luminescence of the plate was read in a Spectramax M5 (Molecular Devices) after a 20 min incubation at room temperature. Data were normalized to positive controls (α-naphthoflavone for CYP1A2, sulfaphenazole for CYP2C9, quinidine for CYP2D6, and ketoconazole for CYP3A4). Data analysis was with Prism software, as described above.

A further data set relates to ovariectomized mice. Nature of the data set: Object placement (spatial memory consolidation) test. The conditions noted are these: for object placement: spatial memory consolidation after long-term ovariectomy: oral gavage 4 months after ovariectomy, same doses (0.5 or 5 mg/kg ISP358-2, 0.05 mg/kg DPN), preliminary.

Turning to `OC[C@H]1CC[C@H](c2ccc(O)cc2)CC1` [Compound 16], the CYP1A2 inhibition result on CYP1A2 is “no significant inhibition”. The “object placement: time with moved object / memory consolidation” value in the data set with ovariectomized mice (IP injection, 0.5 mg/kg, listed as ISP358-2, 0.5 mg/kg) is reported as “spent significantly more time than chance with the moved object; also recorded: most effectively enhanced consolidation; also recorded: enhanced memory consolidation”; in the data set with ovariectomized mice (IP injection, 5 mg/kg, listed as ISP358-2, 5 mg/kg), “spent significantly more time than chance with the moved object; also recorded: also enhanced OP memory consolidation”; in the data set with ovariectomized mice (dorsal hippocampal infusion, 10 pg/hemisphere, tested 24 h after training, chance 15 s), “did not spend significantly more time than chance with the moved object”; in the data set with ovariectomized mice (dorsal hippocampal infusion, 100 pg/hemisphere, tested 24 h after training, listed as ISP358-2), “spent significantly more time than chance with the moved object; also recorded: enhanced memory consolidation; also recorded: significantly increased time was spent”; in the data set on ovariectomized mice (dorsal hippocampal infusion, 1 ng/hemisphere, tested 24 h after training, listed as ISP358-2) it was “spent significantly more time than chance with the moved object; also recorded: enhanced memory consolidation; also recorded: significantly increased time was spent”; in the data set with ovariectomized mice (oral gavage, 0.5 mg/kg, within 1 month of ovariectomy, listed as ISP358-2, 0.5 mg/kg) it was “exhibited a significant preference for the moved object relative to chance; also recorded: enhanced memory consolidation”. In the data set on ovariectomized mice (oral gavage, 5 mg/kg, within 1 month of ovariectomy, listed as ISP358-2, 5 mg/kg), the “object placement: time with moved object / memory consolidation” value is “exhibited a significant preference for the moved object relative to chance; also recorded: most effective; also recorded: enhanced memory consolidation”. For the same compound, the results for the “object placement: spatial memory consolidation after long-term ovariectomy” value with ovariectomized mice and in the data set with ovariectomized mice (listed as ISP358-2) were “did not enhance spatial memory consolidation” and “neither DPN nor ISP358-2 affected memory”, respectively.
